Experimental data taken from US11491157B2, “Cycloalkyl substituted pyrazolopyrimidines having activity against RSV” (priority 2018, dated 2022).
Structures can show the parent of a compound that is named as a salt.

Key:
in vitro = settings: human
Procedure: Black 384-well clear-bottom microtiter plates (Corning, Amsterdam, The Netherlands) were filled via acoustic drop ejection using the echo liquid handler (Labcyte, Sunnyvale, Calif.). 200 nL of compound stock solutions (100% DMSO) were transferred to the assay plates. 9 serial 4-fold dilutions of compound were made, creating per quadrant the same compound concentration. The assay was initiated by adding 10 μL of culture medium to each well (RPMI medium without phenol red, 10% FBS-heat inactivated, 0.04% gentamycin (50 mg/mL). All addition steps are done by using a multidrop dispenser (Thermo Scientific, Erembodegem, Belgium). Next, rgRSV224 virus (MOI=1) diluted in culture medium was added to the plates. rgRSV224 virus is an engineered virus that includes an additional GFP gene (Hallak L K, Spillmann D, Collins P L, Peeples M E. Glycosaminoglycan sulfation requirements for respiratory syncytial virus infection; Journal of virology (2000), 74(22), 10508-13) and was in-licensed from the NIH (Bethesda, Md., USA). Finally, 20 μL of a HeLa cell suspension (3,000 cells/well) were plated. Medium, virus- and mock-infected controls were included in each test. The wells contain 0.05% DMSO per volume. Cells were incubated at 37° C. in a 5% CO2 atmosphere. Three days post-virus exposure, viral replication was quantified by measuring GFP expression in the cells by an in house developed MSM laser microscope (Tibotec, Beerse, Belgium). The EC50 was defined as the 50% inhibitory concentration for GFP expression. In parallel, compounds were incubated for three days in a set of white 384-well microtiter plates (Corning) and the cytotoxicity of compounds in HeLa cells was determined by measuring the ATP content of the cells using the ATPlite kit (Perkin Elmer, Zaventem, Belgium) according to the manufacturer's instructions. The CC50 was defined as the 50% concentration for cytotoxicity.

rgRSV224 virus = assay: Antiviral activity: rgRSV224 (GFP) replication in HeLa cells; settings: human respiratory syncytial virus, 72 h, read-out: RSV HELA EC50

`C[C@@H]1c2ccccc2CCN1C(=O)c1cc(C2CC2)n2nc(-c3ccc([C@H]4C[C@@H]4C#N)cc3F)cc2n1` [Compound 3, (1S,2S)-2-(4-{7-Cyclopropyl-5-[(1R)-1-methyl-1,2,3,4-tetrahydroisoquinoline-2-carbonyl]pyrazolo[1,5-a]pyrimidin-2-yl}-3-fluorophenyl)cyclopropane-1-carbonitrile] showed a CC50 at 3 days (in vitro) greater than 100000 nM and an EC50 (rgRSV224 virus) of 319 nM.
With `C[C@@H]1c2ccccc2CCN1C(=O)c1cc(C2CC2)n2nc(-c3ccc([C@H]4C[C@@H]4C(=O)NS(=O)(=O)C(F)(F)F)cc3F)cc2n1` [Compound 29, (1S,2S)-2-(4-{7-Cyclopropyl-5-[(1R)-1-methyl-1,2,3,4-tetrahydroisoquinoline-2-carbonyl]pyrazolo[1,5-a]pyrimidin-2-yl}-3-fluorophenyl)-N-trifluoromethane-sulfonylcyclopropane-1-carboxamide amine salt] the CC50 at 3 days (in vitro) was greater than 100000 nM and the EC50 (rgRSV224 virus) was 2360 nM.
In the case of `C[C@@H]1c2ccccc2CCN1C(=O)c1cc(C2CC2)n2nc(-c3ccc([C@H]4C[C@@H]4C(=O)N(C)C)cc3F)cc2n1` [Compound 22, (1S,2S)-2-(4-{7-Cyclopropyl-5-[(1R)-1-methyl-1,2,3,4-tetrahydroisoquinoline-2-carbonyl]-pyrazolo[1,5-a]pyrimidin-2-yl}-3-fluorophenyl)-N,N-dimethylcyclopropane-1-carboxamide], the CC50 at 3 days (in vitro) is reported as 51800 nM and the EC50 (rgRSV224 virus) is reported as 427 nM.
For `C[C@@H]1c2ccccc2CCN1C(=O)c1cc(C2CC2)n2nc(-c3ccc([C@H]4C[C@@H]4NS(C)(=O)=O)cc3F)cc2n1` [Compound 36, N-[(1S,2R)-2-(4-{7-Cyclopropyl-5-[(1R)-1-methyl-1,2,3,4-tetrahydroisoquinoline-2-carbonyl]pyrazolo[1,5-a]pyrimidin-2-yl}-3-fluorophenyl)cyclopropyl]methanesulfonamide], the CC50 at 3 days (in vitro) was greater than 100000 nM and the EC50 (rgRSV224 virus) was 110 nM.
Work on `C[C@@H]1c2ccccc2CCN1C(=O)c1cc(C2CC2)n2nc(-c3cnc(C4C[C@H]4C(=O)NS(C)(=O)=O)cc3F)cc2n1` (relative stereo) [Compound 50, Trans-2-(5-{7-Cyclopropyl-5-[(1R)-1-methyl-1,2,3,4-tetrahydroisoquinoline-2-carbonyl]pyrazolo[1,5-a]pyrimidin-2-yl}-4-fluoropyridin-2-yl)-N-methanesulfonylcyclopropane-1-carboxamide] yielded a CC50 at 3 days (in vitro) of 53300 nM and an EC50 (rgRSV224 virus) of 389 nM.
In the case of `C[C@@H]1c2ccccc2CCN1C(=O)c1cc(C2CC2)n2nc(-c3cnc(C4C[C@H]4C(N)=O)cc3F)cc2n1` (relative stereo) [Compound 49, Trans-2-(5-{7-Cyclopropyl-5-[(1R)-1-methyl-1,2,3,4-tetrahydroisoquinoline-2-carbonyl]pyrazolo[1,5-a]pyrimidin-2-yl}-4-fluoropyridin-2-yl)cyclopropane-1-carboxamide], the CC50 at 3 days (in vitro) is reported as 10800 nM and the EC50 (rgRSV224 virus) is reported as 150 nM.
Work on `COC(=O)N[C@H]1C[C@@H]1c1ccc(-c2cc3nc(C(=O)N4CCc5ccccc5[C@H]4C)cc(C4CC4)n3n2)c(F)c1` [Compound 33, Methyl N-[(1S,2R)-2-(4-{7-cyclopropyl-5-[(1R)-1-methyl-1,2,3,4-tetrahydroisoquinoline-2-carbonyl]pyrazolo[1,5-a]pyrimidin-2-yl}-3-fluorophenyl)cyclopropyl]carbamate] yielded a CC50 at 3 days (in vitro) greater than 100000 nM and an EC50 (rgRSV224 virus) of 155 nM.
Work on `C[C@@H]1c2ccccc2CCN1C(=O)c1cc(C2CC2)n2nc(-c3ccc(C4C[C@H]4C(=O)NS(C)(=O)=O)nc3F)cc2n1` (relative stereo) [Compound 52, Trans-2-(5-{7-Cyclopropyl-5-[(1R)-1-methyl-1,2,3,4-tetrahydroisoquinoline-2-carbonyl]pyrazolo[1,5-a]pyrimidin-2-yl}-6-fluoropyridin-2-yl)-N-methanesulfonylcyclopropane-1-carboxamide] yielded a CC50 at 3 days (in vitro) of 65300 nM and an EC50 (rgRSV224 virus) of 117 nM.
For `C[C@@H]1c2ccccc2CCN1C(=O)c1cc(-c2ccccc2)n2nc(-c3ccc([C@H]4C[C@@H]4C(=O)NS(C)(=O)=O)cc3F)cc2n1` (single isomer, unassigned) [Compound 31, (1*S,2*S)-2-(3-Fluoro-4-{5-[(1R)-1-methyl-1,2,3,4-tetrahydroisoquinoline-2-carbonyl]-7-phenylpyrazolo[1,5-a]pyrimidin-2-yl}phenyl)-N-methanesulfonyl-cyclopropane-1-carboxamide; propan-2-amine salt], the CC50 at 3 days (in vitro) was 35200 nM and the EC50 (rgRSV224 virus) was 40 nM.
Work on `C[C@@H]1c2ccccc2CCN1C(=O)c1cc(C2CC2)n2nc(-c3ccc([C@H]4C[C@H](CC(N)=O)C4)cc3F)cc2n1` [Compound 45, 2-[trans-3-(4-{7-Cyclopropyl-5-[(1R)-1-methyl-1,2,3,4-tetrahydroisoquinoline-2-carbonyl]pyrazolo[1,5-a]pyrimidin-2-yl}-3-fluorophenyl)cyclobutyl]acetamide] yielded a CC50 at 3 days (in vitro) of 29500 nM and an EC50 (rgRSV224 virus) of 146 nM.
With `C[C@@H]1c2ccccc2CCN1C(=O)c1cc(C2CC2)n2nc(-c3ccc([C@H]4C[C@@H]4CO)cc3F)cc2n1` [Compound 1, [(1S,2S)-2-(4-{7-Cyclopropyl-5-[(1R)-1-methyl-1,2,3,4-tetrahydroisoquinoline-2-carbonyl]pyrazolo[1,5-a]pyrimidin-2-yl}-3-fluorophenyl)cyclopropyl]methanol] the CC50 at 3 days (in vitro) was 41800 nM and the EC50 (rgRSV224 virus) was 62 nM.
Work on `C[C@@H]1c2ccccc2CCN1C(=O)c1cc(C2CC2)n2nc(-c3ccc(C4C[C@H]4C(N)=O)nc3F)cc2n1` (relative stereo) [Compound 51, Trans-2-(5-{7-Cyclopropyl-5-[(1R)-1-methyl-1,2,3,4-tetrahydroisoquinoline-2-carbonyl]pyrazolo[1,5-a]pyrimidin-2-yl}-6-fluoropyridin-2-yl)cyclopropane-1-carboxamide] yielded a CC50 at 3 days (in vitro) of 25900 nM and an EC50 (rgRSV224 virus) of 47 nM.
In the case of `CCNC(=O)[C@H]1C[C@@H]1c1ccc(-c2cc3nc(C(=O)N4CCc5ccccc5[C@H]4C)cc(C4CC4)n3n2)c(F)c1` [Compound 14, (1S,2S)-2-(4-{7-Cyclopropyl-5-[(1R)-1-methyl-1,2,3,4-tetrahydroisoquinoline-2-carbonyl]pyrazolo[1,5-a]pyrimidin-2-yl}-3-fluorophenyl)-N-ethylcyclopropane-1-carboxamide], the CC50 at 3 days (in vitro) is reported as greater than 50000 nM and the EC50 (rgRSV224 virus) is reported as 170 nM.
Compound `C[C@@H]1c2ccccc2CCN1C(=O)c1cc(C2CC2)n2nc(-c3ccc([C@H]4C[C@@H](CC(N)=O)C4)cc3F)cc2n1` [Compound 46, 2-[cis-3-(4-{7-Cyclopropyl-5-[(1R)-1-methyl-1,2,3,4-tetrahydroisoquinoline-2-carbonyl]pyrazolo[1,5-a]pyrimidin-2-yl}-3-fluorophenyl)cyclobutyl]acetamide] has a CC50 at 3 days (in vitro) of 30400 nM and an EC50 (rgRSV224 virus) of 145 nM.
`C[C@@H]1c2ccccc2CCN1C(=O)c1cc(-c2ccccc2)n2nc(-c3ccc([C@@H]4C[C@H]4C(=O)NS(C)(=O)=O)cc3F)cc2n1` (single isomer, unassigned) (as salt: salt) [Compound 32, (1*R,2*R)-2-(3-Fluoro-4-{5-[(1R)-1-methyl-1,2,3,4-tetrahydroisoquinoline-2-carbonyl]-7-phenylpyrazolo[1,5-a]pyrimidin-2-yl}phenyl)-N-methanesulfonyl-cyclopropane-1-carboxamide; propan-2-amine salt] showed a melting point of 186.79 °C.
`C#CCNC(=O)[C@H]1C[C@@H]1c1ccc(-c2cc3nc(C(=O)N4CCc5ccccc5[C@H]4C)cc(C4CC4)n3n2)c(F)c1` [Compound 17, (1S,2S)-2-(4-{7-Cyclopropyl-5-[(1R)-1-methyl-1,2,3,4-tetrahydroisoquinoline-2-carbonyl]-pyrazolo[1,5-a]pyrimidin-2-yl}-3-fluorophenyl)-N-(prop-2-yn-1-yl)cyclopropane-1-carboxamide] gave a CC50 at 3 days (in vitro) greater than 100000 nM and an EC50 (rgRSV224 virus) of 182 nM.
`C[C@@H]1c2ccccc2CCN1C(=O)c1cc(C2CC2)n2nc(-c3ccc([C@H]4C[C@@H]4C(=O)NC#N)cc3F)cc2n1` [Compound 13, (1S,2S)—N-Cyano-2-(4-{7-cyclopropyl-5-[(1R)-1-methyl-1,2,3,4-tetrahydroisoquinoline-2-carbonyl]pyrazolo[1,5-a]pyrimidin-2-yl}-3-fluorophenyl)cyclopropane-1-carboxamide] gave a CC50 at 3 days (in vitro) of 49800 nM and an EC50 (rgRSV224 virus) of 731 nM.
In the case of `C[C@@H]1c2ccccc2CCN1C(=O)c1cc(C2CC2)n2nc(-c3ccc([C@H]4C[C@@H]4NC(=O)C4CC4)cc3F)cc2n1` [Compound 35, N-[(1S,2R)-2-(4-{7-Cyclopropyl-5-[(1R)-1-methyl-1,2,3,4-tetrahydroisoquinoline-2-carbonyl]pyrazolo[1,5-a]pyrimidin-2-yl}-3-fluorophenyl)cyclopropyl]cyclopropane-carboxamide], the CC50 at 3 days (in vitro) is reported as greater than 100000 nM and the EC50 (rgRSV224 virus) is reported as 57 nM.
`C[C@@H]1c2ccccc2CCN1C(=O)c1cc(C2CC2)n2nc(-c3ccc([C@H]4C[C@H](CO)C4)cc3F)cc2n1` [Compound 41, [trans-3-(4-{7-Cyclopropyl-5-[(1R)-1-methyl-1,2,3,4-tetrahydroisoquinoline-2-carbonyl]pyrazolo[1,5-a]pyrimidin-2-yl}-3-fluorophenyl)cyclobutyl]methanol] gave a CC50 at 3 days (in vitro) of 49800 nM and an EC50 (rgRSV224 virus) of 152 nM.
With `C[C@@H]1c2cc(F)sc2CCN1C(=O)c1cc(C2CC2)n2nc(-c3ccc([C@H]4C[C@@H]4C(N)=O)cc3F)cc2n1` (relative stereo) [Compound 11, (1S,2S)-2-(4-{7-Cyclopropyl-5-[(4*R)-2-fluoro-4-methyl-4,5,6,7-tetrahydro-thieno[3,2-c]pyridine-5-carbonyl]pyrazolo[1,5-a]pyrimidin-2-yl}-3-fluorophenyl)cyclopropane-1-carboxamide] the melting point was 300.14 °C and the EC50 (rgRSV224 virus) was 44 nM.
`C[C@@H]1c2ccccc2CCN1C(=O)c1cc(C2CC2)n2nc(-c3ccc([C@H]4C[C@@H]4C(=O)NCCO)cc3F)cc2n1` [Compound 21, (1S,2S)-2-(4-{7-Cyclopropyl-5-[(1R)-1-methyl-1,2,3,4-tetrahydroisoquinoline-2-carbonyl]-pyrazolo[1,5-a]pyrimidin-2-yl}-3-fluorophenyl)-N-(2-hydroxyethyl)-cyclopropane-1-carboxamide] showed a CC50 at 3 days (in vitro) greater than 100000 nM and an EC50 (rgRSV224 virus) of 62 nM.
